Tests used:
Type in all cases: cell-based
[1] = tested on: Human umbilical vein endothelial cells (HUVEC); test: Endothelial tube formation assay; conditions: 50% reduction in total endothelial tube length, HUVEC on Matrigel, overnight culture
Description: Assay 2: Endothelial Tube Formation Assay
Human umbilical vein endothelial cells (HUVEC) (Cascade Biologics #C-003-5C) were plated into 96-well black clear-bottom microplates (Cat. No. 3603, Corning, Inc.) containing 50 uL/well of BD Matrigel Basement Membrane Matrix (BD Biosciences #354234) at 7.5×10^3 cells/well. Inhibitors were serially diluted in 100% DMSO and subsequently added to cells to reach a final concentration of 0.5% DMSO and the plates cultured overnight at 37° C., 5% CO2 in (EGM™-2 MV) (Cambrex #CC-3202). […] Cell plates were incubated in the dark at 37° C., 5% CO2 for 10 minutes and then immediately imaged and quantitated on the Discovery—1 automated microscope (Molecular Devices Corp.) to determine the total endothelial tube length. The total endothelial tube length is calculated using the Angiogenesis image algorithm supplied with the MetaMorph software package (Molecular Devices Corp). […] The binary image is then analyzed to remove objects that are not part of the endothelial tube network, such as cell clumps or debris. Finally, the corrected binary image is processed to reduce the tubes to single pixel width from which the total tube length is calculated. […]

[2] = tested on: Colon cancer (C26, murine) cells; test: Tumor cell proliferation assay (ATP-lite), C26; conditions: Mus musculus, 96 h, inhibition of tumor cell growth by 50%, 4 days incubation, ATP-lite readout
Description: (§1) Assay 1: Tumor Cell Proliferation Assay:
(§2) Colon cancer (C26, murine), pancreatic cancer (MiaPaCa-2, human) cells were plated in 96-well white plates (Cat. No. 3917, Corning, Inc.) at 2.5×10^3 cells/well and cultured overnight at 37° C. in 5% CO2 in DMEM containing 10% FCS. Inhibitors were serially diluted in 100% DMSO and subsequently added to cells to reach a final concentration of 0.25% DMSO. Cell plates were incubated for an additional 4 days at 37° C. and 5% CO2 and cell proliferation was quantitated using the ATP-lite cell proliferation kit (Cat. No. 6016943, Perkin Elmer).
(§3) The ATPlite kit quantifies the ATP released from lysed cells by the generation of light caused by the reaction of the released ATP with the Luciferase and D-Luciferin contained in the kit. After the 4th day of incubation, the media is removed from the cell plates and replaced with 100 μL of PBS followed by 50 μL of the lysis solution. The plates are then shaken for 5 minutes on an orbital shaker followed by the addition of 50 μL of substrate solution. The plates are shaken for an additional 5 minutes followed by dark adaptation for 10 minutes and finally read on a Victor^3 V plate reader (1 second/well, Cat. No. 1420-041, Perkin Elmer).
(§4) Columns 2-3 show the concentration of compounds required to inhibit the growth of tumor cells by 50% (IC50 in μM).

[3] = tested on: pancreatic cancer (MiaPaCa-2, human) cells; test: Tumor cell proliferation assay (ATP-lite), MiaPaCa-2; conditions: MIA PaCa-2, 96 h; inhibition of tumor cell growth by 50%; MiaPaCa-2 human pancreatic cancer cells; 4 days incubation; ATP-lite readout
Description: as §1, §2, §3, §4

Row | IC50 [2] [nM] | IC50 [3] [nM] | Compound | IC50 [1] [nM]
1 | < 1000 | < 1000 | CC(=NN(C)c1nc(C)nc2ccccc12)c1ccc(C)cc1 [Compound 7, N-Methyl-N-(2-methyl-quinazolin-4-yl)-N-(1-p-tolyl-ethylidene)-hydrazine] | < 1000
2 | < 1000 | < 1000 | CC(=NN(C)c1nc(C(F)(F)F)nc2ccccc12)c1ccc(C)cc1 [Compound 2] | < 1000
3 | < 1000 | < 1000 | COc1ccccc1-c1cc(NN=C(C)c2ccc(N(C)C)cc2)ncn1 [Compound 17, [4-(1-{[6-(2-Methoxy-phenyl)-pyrimidin-4-yl]-hydrazono}-ethyl)-phenyl]dimethyl amine] | –
4 | < 1000 | < 1000 | CC(=NNc1cc(-c2ccccc2OC(F)(F)F)nc(C)n1)c1ccc(N(C)C)cc1 [Compound 11, Dimethyl-[4-(1-{[2-methyl-6-(2-trifluoromethoxy-phenyl)-pyrimidin-4-yl]-hydrazono}-ethyl)-phenyl]-amine] | –
5 | 1000 to 15000 | 1000 to 15000 | CC(=O)Nc1ccc(C(C)=NNc2cc(-c3ccccc3)nc(C)n2)cc1 [Compound 20, N-(4-{1-[(2-Methyl-6-phenyl-pyrimidin-4-yl)-hydrazono]-ethyl}-phenyl)-acetamide] | –
6 | < 1000 | < 1000 | CNc1ccc(C(C)=NNc2nc(C)nc(-c3ccccc3)c2N)cc1 [Compound 21, 2-Methyl-4-{N′-[1-(4-methylamino-phenyl)-ethylidene]-hydrazino}-6-phenyl-pyrimidin-5-ylamine] | –
7 | < 1000 | < 1000 | COc1nc(NN=C(C)c2ccc(N(C)C)cc2)cc(-c2ccccc2)n1 [Compound 15, (4-{1-[(2-Methoxy-6-phenyl-pyrimidin-4-yl)-hydrazono]-ethyl}-phenyl)-dimethylamine] | –
8 | 1000 to 15000 | < 1000 | CC(=NNc1cc(-c2ccccc2N2CCOCC2)nc(C)n1)c1ccc(C)cc1 [Compound 33, N-[2-Methyl-6-(2-morpholin-4-yl-phenyl)-pyrimidin-4-yl]-N′-[1-p-tolyl-ethylidene]-hydrazine] | –
9 | < 1000 | < 1000 | CC(=NNc1cc(-c2ccccc2)nc(C)n1)c1ccc(N(C)C)cc1 [Compound 8, Dimethyl-(4-{1-[(2-methyl-6-phenyl-pyrimidin-4-yl)-hydrazono]ethyl}-phenyl)amine] | –
10 | < 1000 | < 1000 | CC(=NNc1cc(-c2ccccc2F)nc(C)n1)c1ccc(N(C)C)cc1 [Compound 13, [4-(1-{[6-(2-Fluoro-phenyl)-2-methyl-pyrimidin-4-yl]-hydrazono}-ethyl)-phenyl]-dimethylamine] | –
11 | 1000 to 15000 | 1000 to 15000 | CC(=NNc1nc(C)nc2ccccc12)c1cccc(C)c1 [Compound 6, N-(2-methyl-quinazolin-4-yl)-N′-(1-m-tolyl-ethylidene)-hydrazine] | –
12 | < 1000 | < 1000 | CCc1nc(NN=C(C)c2ccc(C)cc2)cc(-c2ccccc2OC)n1 [Compound 26, N-[2-Ethyl-6-(2-methoxy-phenyl)-pyrimidin-4-yl]-N′-[1-p-tolyl-ethylidene]-hydrazine] | –
13 | < 1000 | < 1000 | COc1ccccc1-c1cc(NN=C(C)c2ccc(C)cc2)nc(C)n1 [Compound 29, N-[6-(2-Methoxy-phenyl)-2-methylpyrimidin-4-yl]-N′-[1-p-tolyl-ethylidene]-hydrazine] | –
14 | < 1000 | < 1000 | CC(=NNc1cc(-c2ccccc2)nc(C)n1)c1ccc(C)cc1 [Compound 41, N-(2-Methyl-6-phenyl-pyrimidin-4-yl)-N′-(1-p-tolyl-ethylidene)-hydrazine] | –
15 | 1000 to 15000 | 1000 to 15000 | COc1ccc(C(C)=NNc2nc(C)nc3ccccc23)cc1 [Compound 4, N-[1-(4-methoxy-phenyl)-ethylidene]-N′-(2-methyl-quinazolin-4-yl)-hydrazine] | –
16 | < 1000 | < 1000 | COc1ccccc1-c1cc(NN=C(C)c2ccc(N(C)C)cc2)nc(C)n1 [Compound 9] | –
17 | < 1000 | < 1000 | CC(=O)Nc1ccccc1-c1cc(NN=C(C)c2ccc(C)cc2)nc(C)n1 [Compound 34, N-[2-(2-Methyl-6-{N′-[1-p-tolyl-ethylidene]-hydrazino}-pyrimidin-4-yl)-phenyl]-acetamide] | –
18 | < 1000 | < 1000 | CC(=NNc1cc(-c2c(C)noc2C)nc(C)n1)c1ccc(N(C)C)cc1 [Compound 10, (4-(1-{[6-(3,5-dimethyl-isoxazol-4-yl)-2-methyl-pyrimidin-4-yl]-hydrazono}-ethyl)-phenyl]-dimethylamine] | –

Source: US8288398B2, “Antiproliferative pyrimidyl, fused pyrimidyl and pyrimidyl hydrazones” (Merck Serono SA, priority 2005, dated 2012)
